Experimental data as given in ChEMBL document CHEMBL5233269, “Anticancer potential of spirocompounds in medicinal chemistry: A pentennial expedition” (Eur J Med Chem, 2021).

Legend:
MCF7 [1] = assay: Anticancer activity against human MCF7 cells; type: functional, cell-based
DU-145 = assay: Anticancer activity against human DU-145 cells; type: functional, cell-based
A549 [2] = assay: Anticancer activity against human A549 cells assessed as inhibition of cell proliferation; type: functional, cell-based
HeLa = assay: Anticancer activity against human HeLa cells; type: functional, cell-based
MDA-MB-435 = assay: Growth inhibition of human MDA-MB-435 cells by SRB assay; type: functional
MCF7 [3] = assay: Growth inhibition of human MCF7 cells by SRB assay; type: functional
HepG2 [4] = assay: Cytotoxicity against human HepG2 cells incubated for 48 hrs by SRB assay relative to control; type: functional; design: concentration or dose not given beside the values
[5] = Cytotoxicity against human HBF4 cells incubated for 48 hrs by SRB assay relative to control; type: toxicity, cell-based; design: concentration or dose not given beside the values; settings: hbf4, 48 h
MCF7 [6] = assay: Cytotoxicity against human MCF7 cells incubated for 48 hrs by SRB assay relative to control; type: functional; design: concentration or dose not given beside the values
A549 [7] = assay: Cytotoxicity against human A549 cells; type: functional, cell-based
PC-3 [8] = assay: Cytotoxicity against human PC-3 cells; type: functional, cell-based
HCT-116 [9] = assay: Cytotoxicity against human HCT-116 cells; type: functional, cell-based
SW-620 = assay: Cytotoxicity against human SW620 cells; type: functional, cell-based
HepG2 [10] = assay: Anticancer activity against human HepG2 cells; type: functional, cell-based
MCF7 [11] = assay: Anticancer activity against human MCF7 cells assessed as inhibition of cell viability; type: functional, cell-based
K562 = assay: Anticancer activity against human K562 cells; type: functional, cell-based
[12] = biological target: T1, Amine oxidase [flavin-containing] A (Rattus norvegicus, UniProt P21396); assay: Inhibition of rat brain MAO-A relative to control; type: tissue-based
T1 sequence (P21396 whole entry): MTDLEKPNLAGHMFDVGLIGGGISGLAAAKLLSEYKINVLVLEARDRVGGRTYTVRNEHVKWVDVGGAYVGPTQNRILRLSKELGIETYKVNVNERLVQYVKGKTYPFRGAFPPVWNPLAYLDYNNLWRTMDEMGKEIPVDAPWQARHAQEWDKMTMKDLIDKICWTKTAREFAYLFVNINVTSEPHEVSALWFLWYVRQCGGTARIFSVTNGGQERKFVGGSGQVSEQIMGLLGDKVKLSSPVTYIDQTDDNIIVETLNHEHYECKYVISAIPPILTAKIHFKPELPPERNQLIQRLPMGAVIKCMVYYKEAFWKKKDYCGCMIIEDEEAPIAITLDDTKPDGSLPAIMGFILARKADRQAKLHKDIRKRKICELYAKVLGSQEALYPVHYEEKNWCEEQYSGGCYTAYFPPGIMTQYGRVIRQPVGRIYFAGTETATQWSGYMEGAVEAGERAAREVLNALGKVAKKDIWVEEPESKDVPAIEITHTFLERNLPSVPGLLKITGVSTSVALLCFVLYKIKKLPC

L02 = assay: Antiproliferative activity against human L02 cells by MTT assay; type: functional, cell-based
HepG2 [13] = assay: Anticancer activity against human HepG2 cells assessed as inhibition of cell viability; type: functional, cell-based
HCT-116 [14] = assay: Anticancer activity against human HCT-116 cells assessed as inhibition of cell growth; type: functional, cell-based
PC-3 [15] = assay: Anticancer activity against human PC-3 cells assessed as inhibition of cell growth; type: functional, cell-based
A549 [16] = assay: Cytotoxicity against human A549 cells assessed as inhibition of tumor cell proliferation incubated for 72 hrs by MTT assay; type: functional, cell-based; settings: A549, 72 h

O=C1OCC2Nc3ccccc3NC3(C(=O)N(Cc4ccccc4)c4ccccc43)C12 (configuration not stated)
IC50 (MCF7 [1]): 2.24 µM
IC50 (DU-145): 1.15 µM
IC50 (A549 [2]): 1.35 µM
IC50 (HeLa): 2.29 µM

O=C1OCC2Nc3ccccc3NC3(C(=O)N(Cc4ccccc4)c4ccc(Cl)cc43)C12 (configuration not stated)
IC50 (MCF7 [1]): 9.28 µM
IC50 (DU-145): 2.19 µM
IC50 (A549 [2]): 3.89 µM
IC50 (HeLa): 15.9 µM

N#CC1=C(N)OC2=C(C(=O)c3ccccc32)C12C(=O)Nc1ccc(Br)cc12 (configuration not stated)
GI50 (MDA-MB-435): 1.8 µM
GI50 (MCF7 [3]): > 100 µM

CCOC(=O)C1=C2N=C(N)c3ccccc3N2C2=C(C(=O)CC(C)(C)C2)C12C(=O)Nc1ccccc12 (configuration not stated)
Activity (HepG2 [4]): 29%
Activity [5]: 30%
Activity (MCF7 [6]): 76%

O=C(C1CN(C(=O)N2CCCCC2)C2(C(=O)Nc3ccccc32)C1c1ccc(Cl)cc1O)N1CCOCC1 (configuration not stated)
IC50 (A549 [7]): 36.8 µM
IC50 (PC-3 [8]): > 50 µM
IC50 (HCT-116 [9]): > 50 µM
IC50 (SW-620): < 0.08 µM

Cc1ccc2c(c1)C1(C(=O)N2)C(C#N)=C(N)NC2=C1CCCC2 (configuration not stated)
IC50 (HepG2 [10]): 36 µM
IC50 (MCF7 [11]): 28 µM

N#CC1=C(N)NC2=C(CCCC2)C12C(=O)Nc1ccc(I)cc12 (configuration not stated)
IC50 (HepG2 [10]): 26 µM
IC50 (MCF7 [11]): 28 µM

CN1C(=O)[C@@]2(c3cccc(Cl)c31)[C@H](O)c1ccccc1[C@@H]2[C@]1(CN2CCSCC2)C(=O)N(C)c2c(Cl)cccc21
IC50 (K562): 21.9 µM

CN1C(=O)[C@@]2(c3cccc(Cl)c31)[C@H](O)c1ccccc1[C@@H]2[C@]1(CN2CCCC2)C(=O)N(C)c2c(Cl)cccc21
IC50 (K562): 21 µM

CCn1c(SC)nc2c(c1=O)C1(CCCCC1)Cc1ccccc1-2
inhibition (INH) [12]: 66%

CCN1C(=O)[C@@]2(c3cccc(C)c31)[C@H](O)c1ccccc1[C@@H]2[C@]1(CN2CCCC2)C(=O)N(CC)c2c(C)cccc21
IC50 (K562): 21.4 µM

Cc1coc2c1C(=O)C(=O)c1c-2ccc2c1CCCC2(C)C [TANSHINONE IIA]
IC50 (L02): 65.3 µM

CC1CCC2(CC1)SC/C(=N\c1nnc(SC3O[C@H](CO)[C@@H](O)[C@H](O)[C@H]3O)s1)N2c1ccc(F)cc1 (some centres not stated)
IC50 (HepG2 [13]): 0.334 µM
IC50 (HCT-116 [14]): 0.106 µM
IC50 (PC-3 [15]): 0.112 µM

CC1(C)CC(=O)C2=C(C1)N(c1ccc(Cl)cc1)C(N)=C(C#N)C21C(=O)Nc2ccccc21 (configuration not stated)
Activity (HepG2 [4]): 38%
Activity [5]: 30%
Activity (MCF7 [6]): 79%

CCOC(=O)C1=C2N=C(N)C3=C(SC4CCCCC34)N2C2=C(C(=O)CC(C)(C)C2)C12C(=O)Nc1ccccc12 (configuration not stated)
Activity (HepG2 [4]): 25%
Activity [5]: 17%
Activity (MCF7 [6]): 80%

CC(=O)OC[C@H]1OC(Sc2nc(-c3ccc(C)o3)c3c(n2)N(c2ccc(F)cc2)C2(CCCCC2)S3)[C@H](OC(C)=O)[C@@H](OC(C)=O)[C@@H]1OC(C)=O (some centres not stated)
IC50 (HepG2 [13]): 0.135 µM
IC50 (HCT-116 [14]): 0.12 µM
IC50 (PC-3 [15]): 0.224 µM

CCN(CC)C[C@@]1([C@H]2c3ccccc3[C@@H](O)[C@]23C(=O)N(C)c2ccc(C)cc23)C(=O)N(C)c2ccc(C)cc21
IC50 (K562): 27.8 µM

CCN1C(=O)[C@@]2(c3cccc(Cl)c31)[C@H](O)c1ccccc1[C@@H]2[C@]1(CN2CCCC2)C(=O)N(CC)c2c(Cl)cccc21
IC50 (K562): 8.8 µM

N#CC1=C(N)NC2=C(CCCCC2)C12C(=O)Nc1ccccc12 (configuration not stated)
IC50 (HepG2 [10]): 20 µM
IC50 (MCF7 [11]): 18 µM

Cc1ccc2c(c1)C1(Nc3ccccc3NC3COC(=O)C31)C(=O)N2 (configuration not stated)
IC50 (MCF7 [1]): 2.14 µM
IC50 (DU-145): 1.35 µM
IC50 (A549 [2]): 1.55 µM
IC50 (HeLa): 9.58 µM

O=C1OCC2Nc3ccccc3NC3(C(=O)N(Cc4ccccc4)c4ccc(Br)cc43)C12 (configuration not stated)
IC50 (MCF7 [1]): 2.34 µM
IC50 (DU-145): 3.16 µM
IC50 (A549 [2]): 3.8 µM
IC50 (HeLa): 11.9 µM

C[C@]12CC[C@H](O)CC1=CCC1C2CC[C@@]2(C)C1CC[C@@H]2C1=CC2(C(=O)Nc3ccc(Cl)cc32)C(C#N)=C(N)N1 (some centres not stated)
IC50 (A549 [16]): 11.5 µM

O=C1OCC2Nc3ccc(Cl)cc3NC3(C(=O)Nc4ccccc43)C12 (configuration not stated)
IC50 (MCF7 [1]): 9.51 µM
IC50 (DU-145): 1.7 µM
IC50 (A549 [2]): 2.95 µM
IC50 (HeLa): 5.37 µM

Cc1ccc(-c2nc(SC3O[C@H](CO)[C@@H](O)[C@H](O)[C@H]3O)nc3c2SC2(CCCCC2)N3c2ccc(F)cc2)o1 (some centres not stated)
IC50 (HepG2 [13]): 0.285 µM
IC50 (HCT-116 [14]): 0.0958 µM
IC50 (PC-3 [15]): 0.282 µM

N#CC1=C(N)OC2=C(C(=O)c3ccccc32)C12C(=O)Nc1ccc(Cl)cc12 (configuration not stated)
GI50 (MDA-MB-435): 2.1 µM
GI50 (MCF7 [3]): > 100 µM

CCC(=O)N1CC2C(=O)Oc3ccccc3C2C12C(=O)Nc1ccccc12 (configuration not stated)
IC50 (A549 [7]): 11 µM
IC50 (PC-3 [8]): 46.7 µM
IC50 (HCT-116 [9]): 10.2 µM
IC50 (SW-620): 4.28 µM

CN1CCN(C(=O)C2CN(C(=O)N3CCCCC3)C3(C(=O)Nc4cc(Cl)ccc43)C2c2ccccc2O)CC1 (configuration not stated)
IC50 (A549 [7]): 1.17 µM
IC50 (PC-3 [8]): > 50 µM
IC50 (HCT-116 [9]): > 50 µM
IC50 (SW-620): 31.6 µM

N#CC1=C(N)OC2=C(C(=O)c3ccccc32)C12C(=O)Nc1ccc(F)cc12 (configuration not stated)
GI50 (MDA-MB-435): > 100 µM
GI50 (MCF7 [3]): 90.9 µM

CN1C(=O)[C@@]2(c3cccc(Cl)c31)[C@H](O)c1ccccc1[C@@H]2[C@]1(CN2CCCCC2)C(=O)N(C)c2c(Cl)cccc21
IC50 (K562): 32.8 µM

O=C1Oc2cc(Cl)ccc2C2C1CN(C(=O)N1CCCCC1)C21C(=O)Nc2ccccc21 (configuration not stated)
IC50 (A549 [7]): 7.09 µM
IC50 (PC-3 [8]): > 50 µM
IC50 (HCT-116 [9]): 15.8 µM
IC50 (SW-620): 0.49 µM

CCOC(=O)C1=C(N)N(c2ccccc2)C2=C(C(=O)CC(C)(C)C2)C12C(=O)Nc1ccccc12 (configuration not stated)
Activity (HepG2 [4]): 37%
Activity [5]: 24%
Activity (MCF7 [6]): 78%

CCCN(CCC)C(=O)CSc1nc2c(c(=O)n1CC)C1(CCCCC1)Cc1ccccc1-2
inhibition (INH) [12]: 86%

N#CC1=C(N)OC2=C(C(=O)c3ccccc32)C12C(=O)Nc1ccc(I)cc12 (configuration not stated)
GI50 (MDA-MB-435): > 100 µM
GI50 (MCF7 [3]): 62 µM

CC1(C)CC(=O)C2=C(C1)N(c1ccccc1)C(N)=C(C#N)C21C(=O)Nc2ccccc21 (configuration not stated)
Activity (HepG2 [4]): 39%
Activity [5]: 23%
Activity (MCF7 [6]): 76%

O=C1N(Cc2ccccc2)c2ccccc2[C@@]12[C@H](O)c1ccccc1[C@@H]2[C@]1(CN2CCCCC2)C(=O)N(Cc2ccccc2)c2ccccc21
IC50 (K562): 9.7 µM

N#CC1=C(N)OC2=C(C(=O)C=C2)C12C(=O)Nc1ccc(Cl)cc12 (configuration not stated)
GI50 (MDA-MB-435): 29.9 µM
GI50 (MCF7 [3]): 53 µM

N#CC1=C(N)NC2=C(CCCCCC2)C12C(=O)Nc1ccccc12 (configuration not stated)
IC50 (HepG2 [10]): 39 µM
IC50 (MCF7 [11]): 32 µM

CCn1c(SCC(=O)Nc2ccccc2Cl)nc2c(c1=O)C1(CCCCC1)Cc1ccccc1-2
inhibition (INH) [12]: 66%

CC1CCC2(CC1)SC/C(=N\c1nnc(SC3OC[C@@H](O)[C@H](O)[C@H]3O)s1)N2c1ccc(F)cc1 (some centres not stated)
IC50 (HepG2 [13]): 0.599 µM
IC50 (HCT-116 [14]): 0.107 µM
IC50 (PC-3 [15]): 9.49 µM

CC(=O)OC[C@H]1OC(Sc2nnc(/N=C3\CSC4(CCCCC4)N3c3ccc(F)cc3)s2)[C@H](OC(C)=O)[C@@H](OC(C)=O)[C@@H]1OC(C)=O (some centres not stated)
IC50 (HepG2 [13]): 0.176 µM
IC50 (HCT-116 [14]): 0.0922 µM
IC50 (PC-3 [15]): 0.121 µM

CCC(=O)N1CC2C(=O)Oc3ccccc3C2C12C(=O)Nc1cc(Cl)ccc12 (configuration not stated)
IC50 (A549 [7]): > 50 µM
IC50 (PC-3 [8]): > 50 µM
IC50 (HCT-116 [9]): > 50 µM
IC50 (SW-620): < 0.08 µM

CCn1c(=S)[nH]c2c(c1=O)C1(CCCCC1)Cc1ccccc1-2
inhibition (INH) [12]: 58%

CCN(CC)C[C@@]1([C@H]2c3ccccc3[C@@H](O)[C@]23C(=O)N(C)c2c(C)cccc23)C(=O)N(C)c2c(C)cccc21
IC50 (K562): 26.7 µM
